Laboratory results taken from patent US20180161338A1, “RETOSIBAN FOR THE TREATMENT OF PRE-TERM LABOUR” (priority 2014, published 2018).
Bridge positions count the residues as written; N and C are the ends. Square brackets hold non-standard residues; d marks the D form. Peptide text beside a SMILES is read from it. Orn = NCCC[C@H](N)C(=O)O; Mpa = O=C(O)CCS

How the values were obtained:
[1] = system: women pregnant with twins; details: prophylactic administration; cited from earlier work
[2] = system: pre-term labour in twin pregnancies; details: isolated reports, not placebo controlled; cited from earlier work
[3] = system: pre-term labour in singleton pregnancies; details: cited from earlier work
Human myometrial strips = experiment: Maximal contractile responses to KCl and oxytocin of myometrial strips cultured under low or high stretch; type: cell-based; details: for median fold change with retosiban, maximal response to KCl / median fold change with retosiban, maximal response to oxytocin: retosiban versus vehicle
Protocol: Human myometrial strips (obtained from non-labouring patients undergoing routine elective caesarean section at term) were cultured in medium (phenol red free DMEM supplemented with 10% charcoal stripped foetal calf serum, 2 mM L-glutamine and antibiotics) in an incubator (37° C., humidified 5% CO2) under conditions of low stretch (0.6 g mass) or high stretch (2.4 g mass). Half of the strips in both the low and high stretch groups were incubated with […] retosiban (diluted in DMSO). The remaining strips (paired samples from the same patient) were incubated DMSO.
After 20-24 hours incubation, myometrial contractility of the strips was studied as described previously (J Physiol 2012; 590(Pt9): 2081-2093). Briefly, tension was initially set at 2 g for all strips. Strips were washed with fresh Krebs after 15 and 30 min and the tension reset to 2 g. After a further hour of washes (every 15 min), the issue was treated with 50 mM KCl (50 mM, 5-7 min). This was washed, the tissue allowed to recover and then a cumulative concentration response curve to oxytocin (up to 100 nM) was obtained. Maximal responses to KCl and oxytocin were normalized to strip wet weight. The mean normalized responses of duplicate strips were calculated for the four different groups (low stretch with retosiban, low stretch with vehicle, high stretch with retosiban, high stretch with vehicle). Effects were expressed as fold change i.e. the ratio of normalized responses in the experimental and control conditions from different strips obtained from the same person. pEC50 values were calculated using analysis of the area under the curve for each concentration of oxytocin.
Since the data were expressed as fold changes, all ratios were log transformed and normal distribution following log transformation was assessed using the Sharpiro-Wilk test. The null hypothesis was that there was no change in the mean normalized responses with a given intervention. […] Continuous associations were assessed using linear regression of log transformed fold changes. For the analysis of pEC50 Student's paired t-test was used.

[4] = system: asymptomatic women with a short cervix pregnant with a single foetus; details: daily administration; cited from earlier work

CCCCCC(=O)O[C@]1(C(C)=O)CC[C@H]2[C@@H]3CCC4=CC(=O)CC[C@]4(C)[C@H]3CC[C@@]21C [17-α hydroxyprogesterone caproate]
reduction in the frequency of pre-term birth [1]: no reduction

CCOc1ccc(C[C@H]2NC(=O)CCSSC[C@@H](C(=O)N3CCC[C@H]3C(=O)N[C@@H](CCCN)C(=O)NCC(N)=O)NC(=O)[C@H](CC(N)=O)NC(=O)[C@H]([C@@H](C)O)NC(=O)[C@H]([C@@H](C)CC)NC2=O)cc1 [atosiban] ([Mpa][dY](Et)ITNCP[Orn]G-NH2; disulfide 1-6)
treatment of pre-term labour in twin pregnancies [2]: used successfully

CC[C@H](C)[C@@H]1C(=O)N[C@H](C2Cc3ccccc3C2)C(=O)N1[C@@H](C(=O)N1CCOCC1)c1coc(C)n1 [retosiban, (3R,6R)-3-(2,3-dihydro-1H-inden-2-yl)-1-[(1R)-1-(2-methyl-1,3-oxazol-4-yl)-2-(morpholin-4-yl}-2-oxoethyl]-6-[(1S)-1-methylpropyl]-2,5-piperazinedione]
increase in days to delivery relative to placebo (mean) ([3]; phase II clinical study): 8.2 days | response rate or percentage of women achieving uterine quiescence ([3]; ≤4 contractions/h with no change in cervical dilation >1 cm at 5-6 h, depending upon route of administration/dose): 50-57% | median fold change with retosiban, maximal response to KCl (Human myometrial strips; high stretch (2.4 g), n=12): 0.74 | median fold change with retosiban, maximal response to oxytocin (Human myometrial strips; high stretch (2.4 g), n=12): 0.71 | median fold change with retosiban, maximal response to KCl (Human myometrial strips; low stretch (0.6 g), n=12): 1.00 | median fold change with retosiban, maximal response to oxytocin (Human myometrial strips; low stretch (0.6 g), n=12): 0.97 | relationship between the effect of stretch and the effect of retosiban on responses to KCl and oxytocin (Human myometrial strips; per patient, FIG. 3): the greater was the reduction in response induced by retosiban | fold change with stretch (high stretch compared with low stretch), maximal response to KCl (Human myometrial strips; strips incubated with 1 mM retosiban 20-24 h, retosiban removed, 50 mM KCl, n=12): 1.14 | fold change with stretch (high stretch compared with low stretch), maximal response to oxytocin (Human myometrial strips; strips incubated with 1 mM retosiban 20-24 h, retosiban removed, oxytocin up to 100 nM, n=12): 1.14

CC(=O)[C@H]1CC[C@H]2[C@@H]3CCC4=CC(=O)CC[C@]4(C)[C@H]3CC[C@]12C [vaginal progesterone, progesterone]
reduction of the frequency of birth before 34 weeks of gestation [4]: more than 40%
